In patent US20050020542A1, “Method of modulating sodium ion absorption in epithelial cells” (priority 2001, published 2005):

Assays:
[1] = test system: calcium-activated Cl- channel; test: Perforated patch whole cell recording of Cl- current; assay type: cell-based, human
Description: In FIGS. 4A and 4B, the response to 10 μM INO-E2 is contrasted with the response to ATP.

[2] = test system: human CF nasal epithelia; test: Blue Dextran volume transport assay (fluid absorption); assay type: cell-based; details: for inhibition of fluid absorption, dose response: Blue Dextran Assay, 18 hrs apical exposure
Text: In normal human airway epithelia, Na^+ and Cl^− currents (CFTR and Ca^2+-activated Cl^− currents) contribute to airway surface liquid (ASL) fluid volume regulation depending on signaling equilibria. In contrast, in human CF airway epithelia, Na^+ currents through ENaC dominate basal ASL volume regulation accompanied by a relatively minor contribution through Ca^2+-activated Cl^− currents. The combination of enhanced ENaC currents and transient Ca^2+-activated Cl^− currents in CF result in an inadequate hydration of the ASL and reduction of mucociliary clearance. Since INO-E2 reduces Na^+ transport through ENaC, we hypothesized that INO-E2 would have a functional effect, similar to amiloride, and inhibit fluid absorption. To test this hypothesis, we exposed well differentiated monolayer cultures of CF nasal epithelia to an apically applied buffer containing INO-E2 and a known concentration of the non-permeable molecule Blue Dextran (BD). The resulting reduction in the ability of these monolayers to concentrate BD was taken as a functional indicator of INO-E2's involvement in the inhibition of ENaC.
HEPES Modified Ringer's Buffer (HMRB) was used for these assays. HMRB was sterilized by positive pressure filtration through a 0.2 um syringe tip filter (Gelman acrodisc). The BD stock solution was aseptically prepared with sterile buffer (2 mg BD/ml buffer). Compounds to be tested were solubilized in sterile HMRB containing 1 μM BD (final concentration of vehicle is 0.1% (1:1, DMSO+DMSO containing 5% pluronic-F127). […] A standard concentration curve was obtained by determining the optical densities of a serial dilution of 10 μM Blue Dextran in HMRB placed in a Falcon 3027 96-well plate. The optical density of BD in the solution was obtained by analysis at 660 nm in a Packard Spectracount. Standards and samples were analyzed on the same plate. 50 μl volumes were used for all samples and standards. The [BD] of the samples was determined by extrapolation from the standard curve using the Packard I-Smart software. The increase in [BD] from the starting value of 1 μM was taken to be an indication of the magnitude of volume absorption occurring across the monolayer. The rate of absorption was calculated by dividing the change in volume by the duration of the experiment. This value was normalized to a surface area of 1 cm^2, to give μl·cm^2−1·hr^−1. To address evaporative loss, which would appear in the data as artificially high absorptive rates, dummy membranes were constructed by attaching a thin Sylgard sheet to snapwells/transwells with silicon sealant. These dummy membranes were used in parallel with the epithelial monolayers to assess evaporative loss for each experiment.

O=C(O)c1cccnc1Nc1cccc(C(F)(F)F)c1 [niflumic acid, reference compound]
block of INO-E2 mediated whole cell current ([1]; 100 μM): completely blocked

CCCCCCCCOC1C(OC(=O)CCC)C(OP(=O)(OCOC(=O)CC)OCOC(=O)CC)C(OP(=O)(OCOC(=O)CC)OCOC(=O)CC)C(OP(=O)(OCOC(=O)CC)OCOC(=O)CC)C1OP(=O)(OCOC(=O)CC)OCOC(=O)CC (stereo not shown) [INO-4987, 2-O-butyryl-3-O-octyl-myo-inositol 1,4,5,6-tetrakisphosphate octakis (propionoxymethyl) ester]
inhibition of fluid absorption, dose response [2]: dose dependent inhibition of fluid absorption

CCCC(=O)OC1C(OC(=O)CCC)C(OP(=O)(OCOC(=O)CC)OCOC(=O)CC)C(OP(=O)(OCOC(=O)CC)OCOC(=O)CC)C(OC(=O)CCC)C1OP(=O)(OCOC(=O)CC)OCOC(=O)CC (stereo not shown) [INO-4981, 1,2,5-tri-O-butyryl-myo-inositol 3,4,6-trisphosphate hexakis (propionoxymethyl) ester]
inhibition of fluid absorption, dose response [2]: dose dependent inhibition of fluid absorption

CCC(=O)OCOP(=O)(OCOC(=O)CC)OC1C2OC3(CC4CCC3(C)C4(C)C)OC2C(OP(=O)(OCOC(=O)CC)OCOC(=O)CC)C(OP(=O)(OCOC(=O)CC)OCOC(=O)CC)C1OP(=O)(OCOC(=O)CC)OCOC(=O)CC (stereo not shown) [INO-4996, 1,2-camphanylidene-myo-inositol 3,4,5,6-tetrakisphosphate octakis (propionoxymethyl) ester]
inhibition of fluid absorption, dose response [2]: dose dependent inhibition of fluid absorption

CCC(=O)OCOP(=O)(OCOC(=O)CC)OC1C2OC3(CC4CCC3(C)C4(C)C)OC2C(OP(=O)(OCOC(=O)CC)OCOC(=O)CC)C(OP(=O)(OCOC(=O)CC)OCOC(=O)CC)C1OP(=O)(OCOC(=O)CC)OCOC(=O)CC (stereo not shown) [INO-4984, 2,3-camphanylidene-myo-inositol 1,4,5,6-tetrakisphosphate octakis (propionoxymethyl) ester]
potency on fluid absorption relative to 100 μM amiloride ([2]; 100 μM): more potent than 100 μM amiloride
inhibition of fluid absorption, dose response [2]: dose dependent inhibition of fluid absorption

N=C(N)NC(=O)c1nc(Cl)c(N)nc1N [amiloride, reference compound]
inhibition of fluid absorption, dose response [2]: inhibited fluid absorption measured by the Blue Dextran assay in a dose dependent fashion

CCCC(=O)OC1C(OP(=O)(OCOC(=O)CC)OCOC(=O)CC)C(OC(=O)CCC)C(OP(=O)(OCOC(=O)CC)OCOC(=O)CC)C(OC(=O)CCC)C1OP(=O)(OCOC(=O)CC)OCOC(=O)CC (stereo not shown) [INO-4992, 2,4,6-tri-O-butyryl-myo-inositol 1,3,5-trisphosphate hexakis (propionoxymethyl) ester]
potency on fluid absorption relative to 100 μM amiloride ([2]; 5 uM): nearly as potent as 100 μM amiloride
inhibition of fluid absorption, dose response [2]: dose dependent inhibition of fluid absorption

CCCC(=O)OC1C(OP(=O)(OCOC(=O)CC)OCOC(=O)CC)C(OC(=O)CCC)C(OP(=O)(OCOC(=O)CC)OCOC(=O)CC)C(OP(=O)(OCOC(=O)CC)OCOC(=O)CC)C1OP(=O)(OCOC(=O)CC)OCOC(=O)CC (stereo not shown) [INO-230, 2,6-Di-O-butyryl-myo-inositol 1,3,4,5-tetrakisphosphate octakis(propionoxymethyl) ester]
inhibition of fluid absorption 42 hrs after exposure ([2]; 10 μM, 2 hr exposure, measured 42 hrs after): significantly inhibits
change of potency on fluid absorption with repeat administration ([2]; 2 hours each day for 8 days at 0.1 μM or 1 μM, n=6): enhancement of compound potency
inhibition of fluid absorption, dose response [2]: dose dependent inhibition of fluid absorption
relative potency on fluid absorption after pulsed exposure ([2]; INO-230 vs INO-E2): more potent than INO-E2
duration of effect on fluid secretion following a brief (pulsed) exposure ([2]; pulsed exposure, FIG. 17): prolonged effects
potency of inhibition of fluid absorption on repeated exposure ([2]; repeated apical low doses over 96-192 hours, FIG. 17): nanomolar range

CCCC(=O)OC1C(OCCCc2ccccc2)C(OP(=O)(OCOC(=O)CC)OCOC(=O)CC)C(OP(=O)(OCOC(=O)CC)OCOC(=O)CC)C(OP(=O)(OCOC(=O)CC)OCOC(=O)CC)C1OP(=O)(OCOC(=O)CC)OCOC(=O)CC (stereo not shown) [INO-4997, 2-O-butyryl-1-O-(3-phenylpropyl)-myo-inositol 3,4,5,6-tetrakis-phosphate octakis (propionoxymethyl) ester]
activity on fluid absorption as share of activity of 100 μM amiloride ([2]; 1 μM): 50%
inhibition of fluid absorption, dose response [2]: dose dependent inhibition of fluid absorption

CCCC(=O)OC1C(OC(=O)CCC)C(OP(=O)(OCOC(=O)CC)OCOC(=O)CC)C(OP(=O)(OCOC(=O)CC)OCOC(=O)CC)C(OC(=O)CCC)C1OP(=O)(OCOC(=O)CC)OCOC(=O)CC (stereo not shown) [INO-4982, 2,3,5-tri-O-butyryl-myo-inositol 1,4,6-trisphosphate hexakis (propionoxymethyl) ester]
inhibition of fluid absorption, dose response [2]: dose dependent inhibition of fluid absorption

Nc1ncnc2c1ncn2[C@@H]1O[C@H](COP(=O)(O)OP(=O)(O)OP(=O)(O)O)[C@@H](O)[C@H]1O [ATP, adenosine triphosphate, reference compound]
further increase in whole cell chloride current after INO-E2 ([1]; ATP contrasted with 10 μM INO-E2): no further increase
